Test results: the NIST ThermoML archive (doi:10.1016/j.jct.2015.09.031)

Assay: molar heat capacity at constant pressure
Conditions: Liquid, Flow calorimetry

CCOC(=O)/C=C/c1ccccc1 [ethyl trans-3-phenylpropenoate]
Conditions	molar heat capacity at constant pressure [J/K/mol]
306.7 K, 100 kPa	299.7
306.7 K, 3970 kPa	297.7
306.8 K, 7840 kPa	297.2
306.9 K, 11640 kPa	295.5
307.1 K, 15780 kPa	294.4
315.8 K, 100 kPa	302.2
315.8 K, 4120 kPa	301.9
315.9 K, 8120 kPa	300.4
316 K, 11870 kPa	299.4
316.1 K, 15790 kPa	297.4
325.2 K, 100 kPa	307.1
325.5 K, 3970 kPa	304.6
325.6 K, 8000 kPa	303
325.8 K, 11720 kPa	301.8
325.8 K, 16030 kPa	301
334.6 K, 100 kPa	311.1
334.8 K, 3970 kPa	309.5
334.9 K, 8070 kPa	308
335 K, 11750 kPa	306.6
335.1 K, 16080 kPa	303.6
345.1 K, 100 kPa	315.3
345.2 K, 3910 kPa	313.4
345.3 K, 7970 kPa	312
345.4 K, 11840 kPa	310.1
345.6 K, 15760 kPa	308.2
355.3 K, 11990 kPa	313.5
355.5 K, 16020 kPa	312.1
355.6 K, 100 kPa	320.2
355.7 K, 3930 kPa	316.6
355.8 K, 7990 kPa	315.4
366 K, 100 kPa	324.5
366.3 K, 4210 kPa	321.3
366.5 K, 8030 kPa	319.6
366.6 K, 12140 kPa	318.6
366.9 K, 16090 kPa	316.8
375.6 K, 100 kPa	328.3
375.8 K, 4120 kPa	326
375.9 K, 8030 kPa	323.8
376.2 K, 12180 kPa	321.6
376.4 K, 16170 kPa	320.4
385.6 K, 100 kPa	332.5
385.9 K, 4170 kPa	330.4
386.1 K, 8090 kPa	329.1
386.3 K, 12160 kPa	327.2
386.5 K, 16040 kPa	325.7
